A short description of series [1]: β-sheet content by ATR-FT-IR. It counts as physicochemical. The settings on record: Fig. S7 panel A; β-sheet content by ATR-FT-IR. In outline:
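ATR FT-IR, diamond crystal, 64 scans, 2 cm^-1, on freeze-dried 1 mg/mL PNF; β-sheet per prior calculation. Fluorescamine CR: 3 kDa filter, DMSO redissolution, 20 min RT, ex 365/em 470 nm; values as n-fold enhancement over DMSO (set to 1).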

A short description of series [2]: Turbidity, derived count rate of scattered light. It counts as physicochemical. Conditions: for Count Rate: derived count rate of scattered light (turbidity); for Log10 Count Rate: turbidity, derived count rate of scattered light, data of Figure 2D.
The format of series [3] is physicochemical. Conditions: for ThT Cat. / ThT-Fluorescence (categorical): ThT-active if fluorescence at least twice the control. In outline: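 Preformed peptide fibrils (1 mg/mL) mixed with 50 µM ThT in PBS, 15 min at RT, fluorescence ex 440/em 488 nm versus PBS blank, triplicates. Zeta potential: peptides at 1 mg/mL in PBS pH 7.4, aged 1 d at RT, diluted in 1 mM KCl, Smoluchowski from electrophoretic mobility.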

Setting [4] is: ThT fluorescence category, 1 if Rel. ThT >2.

Like-named read-outs stand apart in the source and are kept apart here.

Regarding KYKGAIIGNIK, the “b -sheet / %” value in series [1] is given as 44.63%. Further, the “Count Rate” value in series [2] stood at 44.1. For the same sequence, the “Log10 Count Rate” value in series [2] is recorded as 1.644. Also, the “Tht category (> 2 to blank = +)” value in series [3] (Fig S10 panel D) and in series [3] (FigS12 panel A) was 0 (ThT-inactive (N-Fold <2)) in each case. Further, the “ThT Cat,” value in series [3] (FigS12 panel B) is 0 (ThT-inactive (N-Fold <2)); in series [3] (ThT category, 1 if Rel. ThT >2), 0 (ThT-inactive (N-Fold <2)). The “ThT Cat.” value in series [3] (ThT category, 1 if Rel. ThT >2) is 0 (ThT-inactive (N-Fold <2)). Also, the “ThT Cat. / ThT-Fluorescence (categorical)” value (shortened to “ThT Cat. / ThT-Fluorescence”) in series [3] was 0 (ThT-inactive (N-Fold <2)).

In the case of KIKIQIAMWQ, the “b -sheet / %” value in series [1] is 37.48%. For the same sequence, in series [2], the “Count Rate” value is given as 540.9 and the “Log10 Count Rate” value turned out to be 2.733. Besides, in series [3] (Fig S10 panel D), the “Tht category (> 2 to blank = +)” value is recorded as 1 (ThT. Cat is 1, if Rel. ThT >2). The “ThT Cat,” value in series [3] (ThT category, 1 if Rel. ThT >2) is 1 (ThT. Cat is 1, if Rel. ThT >2). The “ThT Cat.” value in series [3] (setting [4]) was 1 (ThT. Cat is 1, if Rel. ThT >2). Moreover, the “ThT Cat. / ThT-Fluorescence” value in series [3] is given as 1 (ThT. Cat is 1, if Rel. ThT >2).

Take RGDKIRGDKI: the “b -sheet / %” value in series [1] is reported as 15.01%. For the same sequence, in series [2], the “Count Rate” value was 285.8. Further, the “Log10 Count Rate” value in series [2] came out at 2.456. In addition, the “Tht category (> 2 to blank = +)” value in series [3] (Fig S10 panel D) and in series [3] (FigS12 panel A) was 0 (ThT-inactive (N-Fold <2)) in each case. Further, the “ThT Cat.” value in series [3] (Fig S10 panel E) is 0 (ThT-inactive (N-Fold <2)); in series [3] (ThT category, 1 if Rel. ThT >2) it was 0 (ThT-inactive (N-Fold <2)). Moreover, the “ThT Cat,” value in series [3] (FigS12 panel B) was 0 (ThT-inactive (N-Fold <2)); in series [3] (ThT category, 1 if Rel. ThT >2) it was 0 (ThT-inactive (N-Fold <2)). Besides, in series [3], the “ThT Cat. / ThT-Fluorescence” value is 0 (ThT-inactive (N-Fold <2)).

CKFKFQFNM: the “b -sheet / %” value in series [1] was determined as 41%. Also, in series [2], the “Count Rate” value was determined as 2224 and the “Log10 Count Rate” value is 3.347. In addition, in series [3] (Fig S10 panel D), the “Tht category (> 2 to blank = +)” value is listed as 1 (ThT. Cat is 1, if Rel. ThT >2). In addition, the “ThT Cat.” value in series [3] (Fig S10 panel E) is 1 (ThT. Cat is 1, if Rel. ThT >2). For the same sequence, in series [3] (ThT category, 1 if Rel. ThT >2), the “ThT Cat,” value was 1 (ThT. Cat is 1, if Rel. ThT >2) and the “ThT Cat.” value is 1 (ThT. Cat is 1, if Rel. ThT >2). Besides, in series [3], the “ThT Cat. / ThT-Fluorescence” value is recorded as 1 (ThT. Cat is 1, if Rel. ThT >2).

Consider FDPFDPFDP, for which the “b -sheet / %” value in series [1] came out at 48.89%. Also, in series [2], the “Count Rate” value was 258 and the “Log10 Count Rate” value turned out to be 2.412. For the same sequence, the “Tht category (> 2 to blank = +)” value in series [3] (Fig S10 panel D) was 0 (ThT-inactive (N-Fold <2)). In addition, the “Tht category (> 2 to blank = +)” value in series [3] (FigS12 panel A) is 0 (ThT-inactive (N-Fold <2)). The “ThT Cat,” value in series [3] (FigS12 panel B) was 0 (ThT-inactive (N-Fold <2)). Besides, in series [3] (ThT category, 1 if Rel. ThT >2), the “ThT Cat,” value was 0 (ThT-inactive (N-Fold <2)) and the “ThT Cat.” value was 0 (ThT-inactive (N-Fold <2)). Besides, in series [3], the “ThT Cat. / ThT-Fluorescence” value was 0 (ThT-inactive (N-Fold <2)).

Turning to KFKFQFNMWQ, in series [1], the “b -sheet / %” value was 43.15%. Also, in series [2], the “Count Rate” value was determined as 734.6 and the “Log10 Count Rate” value was 2.866. Besides, the “Tht category (> 2 to blank = +)” value in series [3] (Fig S10 panel D) is 1 (ThT. Cat is 1, if Rel. ThT >2). The “ThT Cat.” value in series [3] (Fig S10 panel E) was 1 (ThT. Cat is 1, if Rel. ThT >2). In series [3] (ThT category, 1 if Rel. ThT >2), the “ThT Cat,” value is on record as 1 (ThT. Cat is 1, if Rel. ThT >2) and the “ThT Cat.” value was 1 (ThT. Cat is 1, if Rel. ThT >2). Further, in series [3], the “ThT Cat. / ThT-Fluorescence” value is reported as 1 (ThT. Cat is 1, if Rel. ThT >2).

For QCKIKQII, the “b -sheet / %” value in series [1] was 40.51%. Moreover, in series [2], the “Count Rate” value is recorded as 301 and the “Log10 Count Rate” value is 2.479. Besides, the “Tht category (> 2 to blank = +)” value in series [3] (Fig S10 panel D) is given as 1 (ThT. Cat is 1, if Rel. ThT >2). The “Tht category (> 2 to blank = +)” value in series [3] (FigS12 panel A) was 1 (ThT. Cat is 1, if Rel. ThT >2). The “ThT Cat,” value in series [3] (FigS12 panel B) was 1 (ThT. Cat is 1, if Rel. ThT >2). For the same sequence, in series [3] (ThT category, 1 if Rel. ThT >2), the “ThT Cat,” value is 1 (ThT. Cat is 1, if Rel. ThT >2) and the “ThT Cat.” value is reported as 1 (ThT. Cat is 1, if Rel. ThT >2). Besides, the “ThT Cat. / ThT-Fluorescence” value in series [3] is given as 1 (ThT. Cat is 1, if Rel. ThT >2).

For the sequence NMWQKVGTPL, in series [1], the “b -sheet / %” value was 32.26%. In series [2], the “Count Rate” value is listed as 26.97 and the “Log10 Count Rate” value was 1.431. In addition, the “Tht category (> 2 to blank = +)” value in series [3] (Fig S10 panel D) is 1 (ThT. Cat is 1, if Rel. ThT >2). Moreover, the “Tht category (> 2 to blank = +)” value in series [3] (FigS12 panel A) is reported as 1 (ThT. Cat is 1, if Rel. ThT >2). Besides, the “ThT Cat,” value in series [3] (FigS12 panel B) is 1 (ThT. Cat is 1, if Rel. ThT >2). Besides, in series [3] (ThT category, 1 if Rel. ThT >2), the “ThT Cat,” value is given as 1 (ThT. Cat is 1, if Rel. ThT >2) and the “ThT Cat.” value is given as 1 (ThT. Cat is 1, if Rel. ThT >2). The “ThT Cat. / ThT-Fluorescence” value in series [3] is reported as 1 (ThT. Cat is 1, if Rel. ThT >2).

For the sequence RPRGLLLGNLR, in series [1], the “b -sheet / %” value is reported as 13.82%. For the same sequence, the “Count Rate” value in series [2] was 210.1. The “Log10 Count Rate” value in series [2] was 2.322. In addition, the “Tht category (> 2 to blank = +)” value in series [3] (Fig S10 panel D) and in series [3] (FigS12 panel A) was 0 (ThT-inactive (N-Fold <2)) each time. Besides, the “ThT Cat,” value in series [3] (FigS12 panel B) is 0 (ThT-inactive (N-Fold <2)); in series [3] (ThT category, 1 if Rel. ThT >2) it was 0 (ThT-inactive (N-Fold <2)). The “ThT Cat.” value in series [3] (ThT category, 1 if Rel. ThT >2) is 0 (ThT-inactive (N-Fold <2)). Further, the “ThT Cat. / ThT-Fluorescence” value in series [3] was 0 (ThT-inactive (N-Fold <2)).

Turning to EIEIEIEI, the “b -sheet / %” value in series [1] was found to be 62.61%. Also, the “Count Rate” value in series [2] is 538.4. Besides, the “Log10 Count Rate” value in series [2] stood at 2.731. The “Tht category (> 2 to blank = +)” value in series [3] (Fig S10 panel D) and in series [3] (FigS12 panel A) was 0 (ThT-inactive (N-Fold <2)) each time. The “ThT Cat,” value in series [3] (FigS12 panel B) is 0 (ThT-inactive (N-Fold <2)); in series [3] (ThT category, 1 if Rel. ThT >2) it was 0 (ThT-inactive (N-Fold <2)). Moreover, the “ThT Cat.” value in series [3] (setting [4]) is 0 (ThT-inactive (N-Fold <2)). In series [3], the “ThT Cat. / ThT-Fluorescence” value was 0 (ThT-inactive (N-Fold <2)).

For the origin of these results see publication PMC10447463, “Data-mining unveils structure–property–activity correlation of viral infectivity enhancing self-assembling peptides” (Nature Communications, 2023).
